The experiment relates to LNCaP human prostate cancer cells. Put plainly: BrdU cell proliferation assay. Type of experiment: cell-based. As to conditions: BrdU incorporation; for cell proliferation: LNCaP cells incubated with peptide, absorbance at 450 nm, at a concentration as lowest as 1 µM (Figure 1). The method, then:
Peptides of sequences SEQ ID NO: 48 and SEQ ID NO: 49 were used in the experiments. They were resuspended in dimethylsulfoxide (DMSO) to obtain a concentration of about 50 mM. They were then diluted in fetal calf serum (FCS) before being added to culture cells at the indicated concentrations.
FGC clone LNCaP human prostate cancer cells, commercialized by ATCC-LGC (Molsheim, France; ATCC Number: CRL-1740) were used.
The cells were incubated for 48 hours with the caspasin inhibitor peptides at the following concentrations: 0.1, 0.3, 0.9, 3, 10, 20, 30, 60 and 90 µM.
Cell proliferation was then assessed by quantifying the DNA precursor bromo-deoxyuridine (BrdU). This quantification was performed using the 5'-Bromo-2'-deoxy-uridine Labeling and Detection Kit (Roche) according to the manufacturer's instructions.
LNCaP prostatic cells were incubated for 24 hours in a 96-well plastic plate containing 200 µl RPMI 1640 medium complemented with 1.5 g/I sodium carbonate, 4.5 g/I glucose, 10 mM HEPES, 1.0 mM sodium pyruvate, 10% foetal bovine serum (FBS) and antibiotics. Peptides were pre-incubated for 1 h30 in 20 µl of FBS at 37°C, then added to 180 µl of RPMI. Medium from plates was released and the medium containing peptides was added to the cells. The cells were then cultured for another 24 hours. BrdU incorporation was then determined by measuring the absorbance at 450 nm on an ELISA plate reader.
Background: Incorporation of labelled thymidine or its analogues reports DNA synthesis.

On to “SEQ ID NO: 48: caspasin inhibitor peptide originating from a caspasin reactive centre loop; sequence only in the sequence listing (ATGIGI)”, for which the cell proliferation entry is “drastic decrease of the cell proliferation”.
Consider “SEQ ID NO: 49: caspasin inhibitor peptide originating from a caspasin reactive centre loop; sequence only in the sequence listing (FLMMITNKA)”, for which the cell proliferation entry is given as “drastic decrease of the cell proliferation”. Further, the “concentration of peptide at which a plateau was reached (cell proliferation)” value (LNCaP cells, concentrations tested 0.1-90 µM (Figure 1)) is reported as 3 µM.

Values taken from EP2238984A1, “Caspasin inhibitor peptides” (INSTITUT NATIONAL DE LA RECHERCHE AGRONOMIQUE (INRA), priority 2009, dated 2010).
